Measured values from the supplement of paper PMC10331698.
± gives the standard deviation of the averaged measurements.

What was measured:
Experiment in all cases: LOEC (log10 uM (lowest observed effect concentration))
[1] = compound: FC(F)(I)C(F)(F)C(F)(F)C(F)(F)C(F)(F)C(F)(F)I [1,6-Diiodoperfluorohexane]
Description: (§1)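 BioMAP Diversity Plus panel in human primary cell co-cultures, 4 concentrations in duplicate blinded samples. Responses are log10 fold change versus DMSO control, processed with tcpl v2.1.0. A hit is called when responses at any concentration exceed the cutoff (the larger of 3*bmad or log10(1.2)); the lowest observed effect concentration (modl_ga, log10 uM) is reported for hits.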

[2] = compound: C=CC(=O)OCC(F)(F)C(F)(F)C(F)(F)C(F)(F)COC(=O)C=C [1H,1H,6H,6H-Perfluorohexane-1,6-diol diacrylate]
Description: as §1

[3] = compound: OCCCC(F)(F)C(F)(F)C(F)(F)C(F)(F)C(F)(F)C(F)(F)C(F)(F)C(F)(F)F [3-(Perfluorooctyl)propanol]
Description: as §1

[4] = compound: OCC(F)(F)C(F)(F)C(F)(F)C(F)(F)C(F)(F)C(F)(F)C(F)(F)C(F)(F)CO [1H,1H,10H,10H-Perfluorodecane-1,10-diol]
Description: as §1

[5] = compound: C=CC(=O)OCCC(F)(F)C(F)(F)C(F)(F)C(F)(F)C(F)(F)C(F)(F)C(F)(F)C(F)(F)F [8:2 Fluorotelomer acrylate]
Description: as §1

[6] = compound: Cc1ccc(S(=O)(=O)OCC(F)(F)C(F)(F)C(F)(F)C(F)(F)C(F)(F)C(F)F)cc1 [1H,1H,7H-Perfluoroheptyl 4-methylbenzenesulfonate]
Description: as §1

[7] = compound: O=S(=O)(OCC(F)(F)F)C(F)(F)C(F)(F)C(F)(F)C(F)(F)F [2,2,2-Trifluoroethyl perfluorobutanesulfonate]
Description: as §1

[8] = compound: OCCC(F)(F)C(F)(F)C(F)(F)C(F)(F)C(F)(F)C(F)(F)C(F)(F)C(F)(F)F [8:2 Fluorotelomer alcohol]
Description: as §1

Perfluoropinacol = compound: OC(C(F)(F)F)(C(F)(F)F)C(O)(C(F)(F)F)C(F)(F)F [Perfluoropinacol]
Description: as §1

[9] = compound: FC(F)(F)C(F)(F)C(F)(F)C(F)(F)CCI [1H,1H,2H,2H-Perfluorohexyl iodide]
Description: as §1

[10] = compound: C=CC(=O)OCC(F)(F)C(F)(F)C(F)(F)C(F)(F)C(F)(F)C(F)(F)C(F)(F)C(F)F [1H,1H,9H-Perfluorononyl acrylate]
Description: as §1

[11] = compound: O=C(CC(=O)C(F)(F)C(F)(F)C(F)(F)F)c1cccs1 [(Perfluorobutyryl)-2-thenoylmethane]
Description: as §1

Perfluorooctanoic acid = compound: O=C(O)C(F)(F)C(F)(F)C(F)(F)C(F)(F)C(F)(F)C(F)(F)C(F)(F)F [Perfluorooctanoic acid]
Description: as §1

[12] = compound: O=C(O)C(F)(F)C(F)(F)C(F)(F)C(F)(F)C(F)(F)C(F)(F)C(F)(F)F [Ammonium perfluorooctanoate]
Description: as §1

Methotrexate = compound: CN(Cc1cnc2nc(N)nc(N)c2n1)c1ccc(C(=O)N[C@@H](CCC(=O)O)C(=O)O)cc1 [Methotrexate]
Description: as §1

[13] = compound: OCC(F)(F)C(F)(F)C(F)(F)C(F)(F)C(F)(F)C(F)(F)C(F)(F)C(F)(F)C(F)(F)C(F)(F)C(F)(F)F [11:1 Fluorotelomer alcohol]
Description: as §1

[14] = compound: OCC(F)(F)C(F)(F)C(F)(F)C(F)(F)C(F)(F)C(F)(F)F [6:1 Fluorotelomer alcohol]
Description: as §1

[15] = compound: O=P(O)(O)CCC(F)(F)C(F)(F)C(F)(F)C(F)(F)C(F)(F)C(F)(F)F [2-(Perfluorohexyl)ethylphosphonic acid]
Description: as §1

Test System | LOEC (log10 uM) [1] | LOEC (log10 uM) [2] | LOEC (log10 uM) [3] | LOEC (log10 uM) [4] | LOEC (log10 uM) [5] | LOEC (log10 uM) [6] | LOEC (log10 uM) [7] | LOEC (log10 uM) [8] | LOEC (log10 uM) (Perfluoropinacol) | LOEC (log10 uM) [9] | LOEC (log10 uM) [10] | LOEC (log10 uM) [11] | LOEC (log10 uM) (Perfluorooctanoic acid) | LOEC (log10 uM) [12] | LOEC (log10 uM) (Methotrexate) | LOEC (log10 uM) [13] | LOEC (log10 uM) [14] | LOEC (log10 uM) [15]
KF3CT IL8 down | 1.07 ± 0.32 | 1.3 | 1.3 | 1.78 | 1.54 ± 0.34 | 1.3 | – | – | – | – | – | – | – | – | – | – | – | –
LPS TNFa down | 1.3 | 1.3 | 0.573 ± 0.39 | – | – | – | 1.78 | 1.78 | – | – | – | – | – | – | – | – | – | –
hDFCGF MIG down | 0.845 | 0.301 | 1.07 ± 0.32 | 1.78 | – | – | – | 1.3 | 1.78 | 1.78 | 1.54 ± 0.34 | 1.3 | – | – | – | – | – | –
BE3C MMP1 up | – | 1.3 | – | – | – | – | – | – | – | – | – | – | 1.78 | 1.3 | – | – | – | –
BT Bcell Proliferation down | 1.54 ± 0.34 | 0.845 | 1.3 | 1.78 | – | – | – | 1.78 | 1.54 ± 0.34 | – | 1.78 | 1.3 | – | – | 0 | -0.96 ± 0.37 | – | –
SAg Proliferation down | 1.3 | 0.845 | 1.3 | – | – | – | – | 1.3 | 1.3 | 1.78 | 1.3 | 0.845 | – | – | 0.477 | -0.96 ± 0.37 | – | –
LPS IL1a down | 1.3 | 1.3 | 0.845 | – | – | – | 1.54 ± 0.34 | 1.3 | – | – | – | – | – | – | – | -0.222 | – | –
hDFCGF VCAM1 down | 0.845 | 0.301 | 0.845 | 1.54 ± 0.34 | – | – | – | 1.3 | 1.3 | 1.78 | 1.3 | – | – | – | – | – | 1.78 | –
IMphg MIP1a down | 1.54 ± 0.34 | – | 1.54 ± 0.34 | 1.78 | – | – | 1.54 ± 0.34 | – | – | – | – | – | – | – | – | – | – | –
hDFCGF Proliferation up | – | – | – | – | – | – | – | – | – | – | – | – | 1.3 | – | – | – | – | 1.78
hDFCGF IP10 down | 0.845 | 0.301 | 0.845 | 1.78 | – | – | 1.78 | 1.3 | 1.3 | – | 1.78 | 1.3 | – | – | – | – | 1.78 | –
BT sIgG down | 1.78 | 0.845 | 1.78 | 1.78 | – | – | – | 1.78 | 0.845 | – | – | 1.3 | – | – | 0 | – | – | –
hDFCGF ITAC down | 0.845 | 0.301 | 0.845 | 1.78 | – | – | 1.78 | 1.3 | 0.801 ± 0.71 | 1.78 | 1.54 ± 0.34 | 1.3 | – | – | – | – | – | –
IMphg IL8 up | – | – | – | – | – | – | – | 1.78 | 1.07 ± 0.32 | – | – | 1.78 | 1.78 | 1.78 | – | – | – | –
BE3C IP10 down | 1.54 ± 0.34 | 1.78 | 1.3 | 1.3 | – | – | – | 1.07 ± 0.32 | 1.3 | – | – | 1.3 | 1.78 | 1.78 | – | – | – | –
hDFCGF CollagenIII down | 0.845 | – | 1.3 | 1.78 | – | – | – | 1.3 | 1.78 | – | – | 1.3 | – | 1.78 | – | – | 1.31 ± 0.66 | –
LPS CD69 down | 1.78 | 1.3 | 1.54 ± 0.34 | – | – | – | – | 1.07 ± 0.32 | 1.07 ± 0.32 | – | – | – | – | 1.78 | – | – | – | –
KF3CT MMP9 down | 0.845 | 1.3 | 1.3 | – | 1.54 ± 0.34 | – | – | 1.07 ± 0.32 | 1.78 | – | – | 0.845 | – | – | – | – | – | –
MyoF CollagenIV up | – | – | – | – | – | – | – | – | 1.3 | – | – | – | 1.78 | 1.78 | – | – | – | –
